Results: patent US20230265118A1, “SALT OF CURCUMIN MONOGLUCURONIDE” (THERABIOPHARMA INC., priority 2020, published 2023)

Experiments:
[1] = Stability in water-methanol solution (residual ratio by HPLC); format: physicochemical; conditions: for Residual Ratio: dissolved in 15 mL water-methanol (1:1), left at room temperature for 35 days, HPLC; for Half-Life: solution in water-methanol (1:1), room temperature
Method: A curcumin monoglucuronic acid conjugate (3.62 mg) and a sodium salt of the curcumin monoglucuronic acid conjugate (3.44 mg) were each dissolved in 15 mL of water-methanol (1:1). The prepared solution was left at room temperature for 35 days, and a residual ratio was determined by HPLC.

[2] = Solubility in distilled water; format: physicochemical; conditions: 100 mg in 1 mL of distilled water

Row | Residual Ratio [1] [%] | Half-Life [1] [days] | Solubility in distilled water [2] | SMILES
1 | 80.8 | 126.1 | hardly dissolved | COc1cc(/C=C/C(=O)CC(=O)/C=C/c2ccc(O[C@@H]3O[C@H](C(=O)O)[C@@H](O)[C@H](O)[C@H]3O)c(OC)c2)ccc1O [curcumin monoglucuronic acid conjugate, curcumin monoglucuronide]
2 | 93.8 | 378.4 | > 100 mg/mL | COc1cc(/C=C/C(=O)CC(=O)/C=C/c2ccc(O[C@@H]3O[C@H](C(=O)[O-])[C@@H](O)[C@H](O)[C@H]3O)c(OC)c2)ccc1O.[Na+] [sodium(2S,3S,4S,5R,6S)-3,4,5-trihydroxy-6-(4-((1E,6E)-7-(4-hydroxy-3-methoxyphenyl)-3,5-dioxohepta-1,6-dien-1-yl)-2-methoxyphenoxy)tetrahydro-2H-pyran-2-carboxylate]
